Tests used:
[1] = test system: wild-type mice; experiment: Low dose treatment of wild-type mice PND3 to PND70: vacuolation; assay type: in vivo, mouse; settings: PND3 to PND70, 0.15 mg/kg
[2] = test system: sulfatide and lysosulfatide levels; experiment: ARSA knockout (MLD) mouse brain sulfatide and lysosulfatide analysis; assay type: in vivo; settings: MLD (ARSA knockout) mice, IP three times per week
Experimental: ARSA mice were obtained from Volkmar Gieselmann, University of Bonn. ARSA −/− mice were generated from heterozygous pairing and confirmed by PCR genotyping. […] Animals were euthanized by exsanguination under deep anesthesia and brain and sciatic nerve removed, rinsed in cold saline, dried, and snap frozen for lipid quantification.
Previously diluted brain homogenate was serially diluted (10 µL into 90 µL and then 20 µL into 80 µL) in ACN/H2O (v/v 1:1) before being added to 300 µL ACN with IS (N-C18:0-CD3-sulfatide, Matreya). The mixture was vortexed for 10 min, centrifuged at 5800 rpm for 10 min, and then 3 µL of supernatant was injected for LC–MS/MS analysis. Sulfatides were separated on an ACE 5 C18 (2.1 × 50 mm, 5 µm) column (0.6 mL/min flow rate) at 60 °C using mobile phase A (H2O-5 mM NH4OAc) and mobile phase B (ACN). Non-hydroxy-sulfatide and 2-hydroxy-sulfatide were detected using MRM on a UPLC-MS/MS-22 (Triple Quad 6500) in positive ESI mode. Total sulfatides (Matreya) were used as reference standards. The non-hydroxy-sulfatide or 2-hydroxy-sulfatide species identified in the reference standards were each summed and normalized relative to the vehicle treated animals.
Sulfatides were quantified using the methods described above. For lysosulfatide, 30 µL of brain homogenates were added to 200 µL ACN with IS (N-acetylsulfatide, Matreya), vortexed for 10 min, and centrifuged at 5800 rpm for 10 min. 3 µL of supernatant was injected for LC–MS/MS analysis. UPLC–MS/MS methods were the same used for sulfatides described above except lysosulfatide (Matreya) was used as a reference standard.

[3] = test system: Sphingomyelin synthase (SMS); experiment: Sphingomyelin synthase assay; assay type: biochemical; settings: MDCK cell lysate
Experimental: 100 µL assay buffer (50 mM Tris buffer pH 7.5 containing 25 mM KCl, 0.5 mM EDTA, 10 µM NBD-C6 ceramide, 100 µM DOPC, and 0.01% Tween 80), 60 µg MDCK cell lysate, and serial diluted compounds were incubated at 37 ℃ for 1 h. The reaction was terminated and prepared for LC–MS using the same protocol as the GCS assay, however, a NBD-C6-sphingomyelin (Avanti) reference standard was used to quantify the sphingomyelin synthesis.

[4] = test system: GalCer and sulfatide levels; experiment: PND3 wild-type mouse repeat dose study: LC-MS of GalCer and sulfatide in brain and sciatic nerve; assay type: in vivo; settings: wild-type mice
Experimental: Animals were euthanized by exsanguinations under deep anesthesia, the brain and sciatic nerve were removed, rinsed in cold saline, dried, and snap frozen for lipid quantification.
Whole brain was homogenized in 3 volumes H2O (v/w) and further diluted as necessary in H2O. Given the small size, the sciatic nerve weight was recorded and homogenized in a larger fixed volume. 25 µL of diluted homogenate was added to 35 µL DMSO, 200 µL of methanol, and 325 µL acetone/methanol (50/50) and vortexed approximately 30 min. Next, 150 µL water and 300 µL water/methanol (13/87) were added before centrifuging for 5 min at RT at 14,000 rpm. […] supernatant was transferred onto a pre-conditioned C18-SPE cartridge, washed with 2 mL methanol/acetone/water (67/23/10), and eluted with 1.5 mL acetone/methanol (90/10). The eluate was dried before reconstituting with 50 µL DMSO (including N-C16:0-CD3-Glucosylceramide, IS Matreya) and 200 ACN. 3 µL of suspension was injected into LC–MS/MS for analysis. GalCers were separated from isobaric GluCers by Halo-Hilic (4.6 × 150 mm, 2.7 µm) column with a mobile phase of 95/2.5/2.5 ACN/MeOH/H2O (with 0.5 FA + 5 mM NH4OAc) 100% for 9.5 min at 50 °C and a 0.50 mL/min flow rate. Non-hydroxy-GalCer and 2-hydroxy-GalCer were detected using MRM on an LC–MS/MS (Agilent 6410) in positive ESI mode. Purified non-hydroxy-GalCer (Kerasin, Matreya) or 2-hydroxy-GalCer (Phrenosin, Matreya) were used as reference standards. All non-hydroxy-GalCer or 2-hydroxy-GalCer species identified in the reference standards were summed, normalized to the IS, and reported as percentage of vehicle control (Fig. 2B,C). In Supplementary Figure S1, individual acyl chains were identified, normalized to the IS, and plotted as percentage of vehicle control.
Previously diluted brain homogenate was serially diluted (10 µL into 90 µL and then 20 µL into 80 µL) in ACN/H2O (v/v 1:1) before being added to 300 µL ACN with IS (N-C18:0-CD3-sulfatide, Matreya). […] Non-hydroxy-sulfatide and 2-hydroxy-sulfatide were detected using MRM on a UPLC-MS/MS-22 (Triple Quad 6500) in positive ESI mode. […]

[5] = molecular target: T1, Recombinant human glucosylceramidase (GBA1) (Homo sapiens, UniProt P04062); experiment: Beta-glucocerebrosidase assay; assay type: biochemical
T1 construct: purchased R&D Systems
T1 sequence (P04062 40-536): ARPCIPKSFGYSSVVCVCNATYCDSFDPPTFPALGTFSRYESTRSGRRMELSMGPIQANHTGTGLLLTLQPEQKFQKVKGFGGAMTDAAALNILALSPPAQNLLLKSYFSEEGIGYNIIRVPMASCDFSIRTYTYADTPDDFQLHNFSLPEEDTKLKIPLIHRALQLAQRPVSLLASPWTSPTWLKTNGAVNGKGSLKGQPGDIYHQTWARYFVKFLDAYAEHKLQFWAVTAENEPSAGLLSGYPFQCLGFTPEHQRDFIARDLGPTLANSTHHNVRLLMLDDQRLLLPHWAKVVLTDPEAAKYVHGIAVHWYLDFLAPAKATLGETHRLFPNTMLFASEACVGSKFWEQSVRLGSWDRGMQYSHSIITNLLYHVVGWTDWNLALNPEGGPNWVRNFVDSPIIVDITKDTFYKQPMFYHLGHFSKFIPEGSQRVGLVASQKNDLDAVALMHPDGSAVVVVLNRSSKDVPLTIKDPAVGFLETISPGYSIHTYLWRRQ

In the case of `C[C@H]1N(c2ccc(Br)cc2)C(=O)N(c2ccc(Br)cc2)C1(O)c1cccc(OC(F)(F)F)c1` (stereo partly drawn) [S202], the “vacuolation in brain, spine and sciatic nerve” value [1] is reported as “vacuolation was observed in a similar pattern, but was much less severe”, the 2-hydroxy-sulfatides in brain ([2]; higher doses) is reported as “reduced” and the lysosulfatide in brain ([2]; lower doses) is reported as “reduction”. For the same compound, the non-hydroxy-sulfatide in brain ([2]; lower doses) was “reduction”, the IC50 [3] was > 50 µM and the “GalCer synthesis in the brains” value ([4]; higher doses (> 1.5 mg/kg)) was “reduced synthesis of both non-hydroxy-GalCer and 2-hydroxy-GalCer”. The “2-hydroxy-GalCer levels in the brains” value ([4]; lower doses) was “consistently increase”, the “non-hydroxy-GalCer levels in the brains” value ([4]; lower doses (0.015 to 0.5 mg/kg)) was “greatly decreased” and the IC50 [5] was > 50 µM.
